Results reported in patent US11633370B2, “Use of scavengers of reactive gamma-ketoaldehydes to extend cell lifespan and healthspan” (Vanderbilt University, priority 2016, dated 2023).

Columns and labels:
daf-16(mu86) = test: Longevity assay, daf-16 gene knockout mutant strain; assay type: in vivo, C. elegans; conditions: SA from day 1 of adulthood; P<0.01 versus vehicle control
Protocol: C. elegans strains were cultured at 20° C. on standard nematode growth media (NGM) agar plates seeded with Escherichia coli strain NA22. The following strains were used in this work: wild-type C. elegans Bristol strain (N2), sir-2.1(ok434) IV, F19F10.5(ok888) V, and daf-16(mu86). Strains were obtained from the Caenorhabditis Genetics Center (University of Minnesota, St. Paul, Minn.). For generating cultures of 15-day-old (Day 15) adult worms, synchronized late-stage L4s/early young adult worms were transferred to peptone enriched 15 cm plates containing UV-irradiated OP50 E. coli and 0.12 mM 5-fluoro-2′-deoxyuridine (FUDR) to inhibit progeny production[88] with or without drug until harvest.
Survival cultures were grown on 60-mm agar plates; after the late-stage L4/young adult molt, approximately 100 adults were transferred onto SA-OP50-seeded NGM plates. Salicylamine drug plates were made fresh before transfer by spreading SA on top of the agar. […] Worms were maintained at 20° C. and live worms were counted during transfer to freshly made SA-OP50-NGM agar plates every 2-3 days. Survival was scored as movement upon slight touch with the platinum wire. […]
FIG. 7 (S1). […] Survival was assessed every 2 days until all the worms died. […] Data are expressed as means±SEM from four independent experiments. *P<0.01 as compared to vehicle control.

[1] = system: VC199 (SIR-2.1 deficient strain); test: F3-IsoP quantification by GC/MS, VC199; assay type: in vivo, C. elegans; conditions: any dose of SA tested, Day 15
Excerpt: One of the major stimuli for activation of sirtuins is oxidative stress. […] Indeed, the mitochondrial antioxidant manganese superoxide dismutase (MnSOD) has been identified as one of the major protein targets that is deacetylated by sirtuin isoforms, with deacetylation enhancing the enzymatic activity of MnSOD [60]. If SA indeed preserves SIR-2.1 enzymatic function in vivo, the present inventors hypothesized that SA treatment would dose-dependently decrease biomarkers of oxidant injury in a SIR-2.1-dependent manner. To quantify oxidant injury, the present inventors measured F3-isoprostanes (F3-IsoPs). […] To further characterize SA's ability to preserve SIR-2.1 function, the present inventors assessed acetylation of MnSOD at Lys 122.
F3-Isoprostanes were quantified from SA-treated worms a gas-chromatography-negative ion chemical ionization-mass spectrometry (GC-NICI-MS) approach. […]
Samples were spiked with 248 pg of deuterated internal standards, [^2H4]-15-F2t-IsoP, quantified and calibrated by the method of Milne et al. and acidified to pH<3 with HCl in preparation for further Separation Phase Extraction (SPE). […]
Eluates were dried under nitrogen and F3—IsoPs and resuspended in MeOH for separation by Thin Layer Chromatography (TLC). […] Deuterated F2-IsoP standard was measured at m/z 573. F3—IsoP was measured at m/z 567. […]

For NCc1ccccc1O [SA, salicylamine], the “maximum and median lifespan” value (daf-16(mu86)) was “increased maximum and median lifespan” and the F3-IsoP levels [1] was “did not significantly decrease”.
